The text below walks through data of US20210315893A1 (Galapagos NV, priority 2017, published 2021).

Molecules are shown by their SMILES. Where only a bound is given, the exact number is not on record here.

Experiment [1] has as its system HFL-1 cells. Kind of experiment: IL-8 production assay (S1P induced IL-8). In kind it is cell-based. As to conditions: Homo sapiens, HFL1; S1P (1 μM) induced IL-8 in HFL-1 cells, starvation medium without HSA; read-out: IL8 EC50. The method in brief:
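HFL-1 fibroblasts in low-serum medium were pretreated 1 h with a 10-point 1/3 series of compound starting at 30 μM (0.3% DMSO).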

The target of experiment [2] is T1, human GPCR sphingosine 1-phosphate receptor 2 (Homo sapiens, UniProt O95136).
T1 construct: host or cells: CHO
T1 sequence (O95136 whole entry): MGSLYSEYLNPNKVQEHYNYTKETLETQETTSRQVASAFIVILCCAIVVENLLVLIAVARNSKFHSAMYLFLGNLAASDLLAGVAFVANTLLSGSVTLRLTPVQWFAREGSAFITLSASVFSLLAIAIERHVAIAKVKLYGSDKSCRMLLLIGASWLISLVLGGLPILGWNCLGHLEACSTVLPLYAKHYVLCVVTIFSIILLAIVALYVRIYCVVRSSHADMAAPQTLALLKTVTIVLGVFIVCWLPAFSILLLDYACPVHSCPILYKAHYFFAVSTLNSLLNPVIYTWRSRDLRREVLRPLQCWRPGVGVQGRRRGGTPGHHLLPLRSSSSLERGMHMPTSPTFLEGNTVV
Kind of experiment: S1PR2 antagonist Ca2+ flux assay. In kind it is cell-based. Conditions: antagonist mode, CHO-S1PR2 cells, S1P at EC80, Ca2+ fluorescence; read-out: S1P2 EC50 (nM), S1P2 antagonist EC50. The method in brief:
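Antagonist mode: 15 min after compound addition, S1P (EC80) stimulates Fluo8-loaded, 1 h-starved CHO-S1PR2 cells, Ca2+ read over 3 min; a prior 3-min read checks compound agonism. EC50 from peak/baseline fluorescence ratio, normalised versus vehicle and S1P EC50 (antagonist) or EC100 (agonist).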

The target in another experiment is T2, S1PR2 (Homo sapiens, UniProt O95136).
T2 construct: expressed in transfected cells
T2 sequence (O95136 whole entry): as above
Kind of experiment: S1PR2 binding assay (competition with radioactively labeled S1P, SpA). As to conditions: membranes from stable cell line over expressing S1PR2, SpA beads; read-out: S1P2 EC50 (nM), S1PR2 binding EC50. An outline of the steps:
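Scintillation proximity read-out after 2 h room-temperature incubation of compound, [3H]S1P and S1PR2-overexpressing cell membranes on WGA-coated beads. Buffer: 20 mM Tris pH 7.5, 100 mM NaCl, 10 mM MgCl2, 1 mM Na3VO4, 0.4% fatty-acid-free BSA; plates counted immediately after centrifugation.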

The test system of experiment [3] is HFL-1 cells. Briefly: IL8 assay in the presence of Human Serum Albumin. As to conditions: HFL1, read-out: HSA IL8 EC50.

Consider `CC(C)(C)NC(=O)Cn1nc(Cc2nc3cc(OCC(F)F)c(C#N)cc3[nH]2)c2c(c1=O)CCCC2` [Compound 203, N-tert-butyl-2-[4-[[6-cyano-5-(2,2-difluoroethoxy)-1H-benzimidazol-2-yl]methyl]-1-oxo-5,6,7,8-tetrahydrophthalazin-2-yl]acetamide], for which the concentration giving a half-maximal response (EC50) (usually the concentration needed to bring the measured effect to its halfway point) with HFL-1 cells [1] worked out at 1.02 µM; in experiment [2], 148 nM; at S1PR2, 343 nM; with HFL-1 cells [3], 1.94 µM.

For `N#Cc1cc2nn(Cc3nn(CC(=O)N4CCOCC4)c(=O)c4ccccc34)cc2cc1OCC(F)F` [Compound 205, 5-(2,2-difluoroethoxy)-2-[[3-(2-morpholino-2-oxo-ethyl)-4-oxo-phthalazin-1-yl]methyl]indazole-6-carbonitrile], the half-maximal effective concentration (EC50) with HFL-1 cells [1] is 2.64 µM; in experiment [2], 13200 nM; at S1PR2 it was 7680 nM; with HFL-1 cells [3], 9.07 µM.

As to `CN(C)[C@@H]1CCN(C(=O)Cn2nc(Cn3cc4cc(OCC(F)F)c(C#N)cc4n3)c3ccccc3c2=O)C1` [Compound 206], the half-maximal effective concentration (EC50) is 2.99 µM in the experiment with HFL-1 cells [1], not below 19800 nM in experiment [2], 3620 nM at S1PR2 and 2.63 µM in the experiment on HFL-1 cells [3].

Turning to `CN(C)[C@H]1CCN(C(=O)Cn2nc(Cn3cc4cc(OCC(F)F)c(C#N)cc4n3)c3ccccc3c2=O)C1` [Compound 207, 5-(2,2-difluoroethoxy)-2-[[3-[2-[(3S)-3-(dimethylamino)pyrrolidin-1-yl]-2-oxo-ethyl]-4-oxo-phthalazin-1-yl]methyl]indazole-6-carbonitrile], the half-maximal effective concentration (EC50) is 29.9 µM in the experiment with HFL-1 cells [1], not below 19800 nM in experiment [2], 21900 nM at S1PR2 and 3.03 µM in the experiment with HFL-1 cells [3].

For the compound `CC1(O)CCN(C(=O)Cn2nc(Cc3cn4cc(OCC5CC5)c(C#N)cc4n3)c3ccccc3c2=O)C1` (stereo not shown) [Compound 210, 6-(cyclopropylmethoxy)-2-[[3-[2-(3-hydroxy-3-methyl-pyrrolidin-1-yl)-2-oxo-ethyl]-4-oxo-phthalazin-1-yl]methyl)imidazo[1,2-a]pyridine-7-carbonitrile], the EC50 in the experiment with HFL-1 cells [1] stood at 0.356 µM; in experiment [2], 102 nM; at S1PR2, 233 nM; with HFL-1 cells [3] it was 0.188 µM.

As for `N#Cc1cc2[nH]c(Cc3nn(CC(=O)N4CCC(C#N)CC4)c(=O)c4ccccc34)nc2cc1OCC(F)F` [Compound 219, 2-[[3-[2-(4-cyano-1-piperidyl)-2-oxo-ethyl]-4-oxo-phthalazin-1-yl]methyl]-6-(2,2-difluoroethoxy)-3H-benzimidazole-5-carbonitrile], the EC50 in the experiment on HFL-1 cells [1] came to 0.177 µM; in experiment [2], 32.4 nM; at S1PR2 it was 265 nM; in the experiment with HFL-1 cells [3] it was 0.607 µM.

Consider `CN(CCS(C)(=O)=O)C(=O)Cn1nc(Cc2nc3cc(OCC(F)F)c(C#N)cc3[nH]2)c2ccccc2c1=O` [Compound 220, 2-[4-[[6-cyano-5-(2,2-difluoroethoxy)-1H-benzimidazol-2-yl)methyl]-1-oxo-phthalazin-2-yl]-N-methyl-N-(2-methylsulfonylethyl)acetamide], for which the EC50 in the experiment with HFL-1 cells [1] came to 0.102 µM; in experiment [2], 52.6 nM; at S1PR2, 320 nM; in the experiment on HFL-1 cells [3], 0.325 µM.

Take `CS(=O)(=O)C1CCN(C(=O)Cn2nc(Cc3nc4cc(OCC(F)F)c(C#N)cc4[nH]3)c3ccccc3c2=O)C1` (stereo not shown) [Compound 221, 6-(2,2-difluoroethoxy)-2-[[3-[2-(3-methylsulfonylpyrrolidin-1-yl)-2-oxo-ethyl]-4-oxo-phthalazin-1-yl]methyl]-3H-benzimidazole-5-carbonitrile]: the 50% effective concentration (EC50) in the experiment with HFL-1 cells [1] turned out to be 0.127 µM; in experiment [2], 45.8 nM; on S1PR2, 365 nM; in the experiment with HFL-1 cells [3], 0.387 µM.

In the case of `CC1(C)CCN(C(=O)Cn2nc(Cc3nc4cc(OCC(F)F)c(C#N)cc4[nH]3)c3ccccc3c2=O)C1` [Compound 233, 6-(2,2-difluoroethoxy)-2-[[3-[2-(3,3-dimethylpyrrolidin-1-yl)-2-oxo-ethyl]-4-oxo-phthalazin-1-yl]methyl]-3H-benzimidazole-5-carbonitrile], the EC50 with HFL-1 cells [1] amounted to 0.0288 µM; in experiment [2], 16.8 nM; at S1PR2, 210 nM; with HFL-1 cells [3] it was 0.562 µM.

Take `N#Cc1cc2[nH]c(Cc3nn(CC(=O)N4CCC5(C4)CC5(F)F)c(=O)c4ccccc34)nc2cc1OCC(F)F` (stereo not shown) [Compound 235, 2-[[3-[2-(2,2-difluoro-5-azaspiro[2.4]heptan-5-yl)-2-oxo-ethyl]-4-oxo-phthalazin-1-yl]methyl]-6-(2,2-difluoroethoxy)-3H-benzimidazole-5-carbonitrile]: the EC50 in the experiment on HFL-1 cells [1] amounted to 0.0492 µM; in experiment [2], 18.2 nM; on S1PR2, 117 nM; in the experiment on HFL-1 cells [3], 0.159 µM.

For `O=c1c2ccccc2c(Cn2cc3cc(OCC4CC4)c(Cl)cc3n2)nn1C1CNC1` [compound 2, 2-(azetidin-3-yl)-4-[[6-chloro-5-(cyclopropyl-methoxy)indazol-2-yl]methyl]-phthalazin-1-one], the EC50 in the experiment with HFL-1 cells [1] stood at 0.0388 µM; in experiment [2], 81.6 nM; on S1PR2, 75.7 nM; in the experiment with HFL-1 cells [3], 0.166 µM.

`CC(=O)N1CCCC1Cn1nc(Cc2nc3cc(Cl)c(OC(F)(F)F)cc3[nH]2)c2ccccc2c1=O` (stereo not shown) [compound 14, 2-[(1-acetylpyrrolidin-2-yl)-methyl]-4-[[5-chloro-6-(tri-fluoromethoxy)-1H-benzimidazol-2-yl]methyl]-phthalazin-1-one]: the half-maximal effective concentration (EC50) was 1.45 µM in the experiment on HFL-1 cells [1], 615 nM in experiment [2], 4950 nM on S1PR2 and 10 µM in the experiment on HFL-1 cells [3].

With `O=C(O)Cc1nn(Cc2cc3cc(Cl)c(OCC4CC4)cc3[nH]2)c2ccccc2c1=O` [compound 16, 2-[1-[[5-chloro-6-(cyclopropyl-methoxy)-1H-indol-2-yl]-methyl]-4-oxo-cinnolin-3-yl]-acetic acid], the EC50 in the experiment with HFL-1 cells [1] came out at 0.00849 µM; in experiment [2], 4.58 nM; at S1PR2 it was 29.9 nM; in the experiment with HFL-1 cells [3], 0.0514 µM.
